# Values of other authors as cited in patent US20200281206A1, “SEXUAL ATTRACTION PHEROMONE OF TRIBOLIUM CASTANEUM AND INSECT CONTROL DEVICE” (YPF TECNOLOGÍA S.A., priority 2019, published 2020).
# Tested on: Tribolium castaneum
# Settings: prior-art finding
compound,measurement,value
"CCC(C)CCCC(C)CCC=O (stereo not shown) [4,8-dimethyldecanal]",sex of insects attracted,attracts both male and female insects
